The text below walks through data of ChEMBL document CHEMBL1129011, “Novel 4,4-bis(trifluoromethyl) imidazolines as stereospecific and orally active acyl coa: Cholesterol acyltransferase (ACAT) inhibitors and antihypercholesterolemic agents” (Bioorg Med Chem Lett, 1996).

For assay [1], the system named is Oryctolagus cuniculus. Description: Percent reduction in serum cholesterol was determined by the oral administration in methylcellulose vehicle at a dose of 5 mg/kg/day for 4 day. The assay is classed as functional.
A short description of assay [2]: Compound was evaluated for the inhibition of J774 macrophage cell culture Acyl coenzyme A:cholesterol acyltransferase. The assay is classed as cell-based.
For assay [3], the species on record is Oryctolagus cuniculus. Description: Antihypercholesterolemic value for the compound was determined. The format is functional.
The species entered for assay [4] is Oryctolagus cuniculus. The experiment in a line: Antihypercholesterolemic value for the compound was determined in rabbits. The assay is classed as functional.
The subject of assay [5] is Oryctolagus cuniculus. Description: Percent reduction in serum cholesterol was determined by the oral administration in methylcellulose vehicle at a dose of 2.5 mg/kg/day for 7 days. The format is functional.

pIC50: −log10 of the molar value. Some results are limits rather than exact numbers.

In the assay on Oryctolagus cuniculus [1], `CN(C(=O)c1ccc(C#N)cc1)[C@@H]1N(C)C(c2ccc(C#N)cc2)=NC1(C(F)(F)F)C(F)(F)F` gave a Reduction of 12%. For the same compound, the pIC50 in assay [2] is 4.27. Also, the AHV in the assay filed under Oryctolagus cuniculus [3] is reported as 15%.

In the assay filed under Oryctolagus cuniculus [4], `CN(C(=O)c1ccc(C#N)cc1)C1N(C)C(c2ccc(C#N)cc2)=NC1(C(F)(F)F)C(F)(F)F` (centres undefined) displayed an AHV above 90%. The Reduction with Oryctolagus cuniculus [5] came out at 79%. Further, the pIC50 in assay [2] is 4.80.

The compound `CN(C(=O)c1ccc(C#N)cc1)[C@H]1N(C)C(c2ccc(C#N)cc2)=NC1(C(F)(F)F)C(F)(F)F` had a Reduction in the assay with Oryctolagus cuniculus [1] of 75%. This compound also gave a pIC50 in assay [2] of 4.96. The compound further yielded an AHV in the assay filed under Oryctolagus cuniculus [3] of 90%.

For orientation: pIC50 means the IC50 on a negative log10 scale, so that one unit is a factor of ten.
